# In BindingDB's records for doi:10.1021/jm00080a021 (Notre-Dame Hospital Research, 1992):
# Molecular target: Ribonucleoside-diphosphate reductase large subunit R1 (Herpes simplex virus type 1)
# Test: Inhibitory concentration against HSV-1 ribonucleotide reductase R1 protein binding
row,IC50,Compound
1,640 µM,CC[C@H](C)[C@H](NC(=O)[C@@H](NC(=O)[C@@H](NC(=O)CNC(=O)[C@H](C)NC(=O)[C@H](Cc1ccc(O)cc1)NC(C)=O)[C@@H](C)O)C(C)C)C(=O)N[C@@H](CC(N)=O)C(=O)N[C@@H](CC(N)=O)C(=O)N[C@@H](CC(C)C)C(=O)O
2,> 1000 µM,CC(=O)N[C@@H](Cc1ccc(O)cc1)C(=O)N[C@@H](C)C(=O)NCC(=O)N[C@H](C(=O)N[C@H](C(=O)N[C@@H](C(=O)N[C@@H](CC(N)=O)C(=O)N[C@@H](CC(=O)O)C(=O)N[C@@H](CC(C)C)C(=O)O)C(C)C)C(C)C)[C@@H](C)O [2-{2-[2-(2-{2-[2-(2-{2-[2-Acetylamino-3-(4-hydroxy-phenyl)-propionylamino]-propionylamino}-acetylamino)-3-hydroxy-butyrylamino]-3-methyl-butyrylamino}-3-methyl-butyrylamino)-3-carbamoyl-propionylamino]-3-carboxy-propionylamino}-4-methyl-pentanoicacid]
3,650 µM,CC[C@H](C)[C@H](NC(=O)[C@@H](NC(=O)[C@@H](NC(=O)CNC(=O)[C@H](C)NC(=O)[C@H](Cc1ccc(O)cc1)NC(C)=O)[C@@H](C)O)C(C)C)C(=O)N[C@@H](CC(N)=O)C(=O)N[C@@H](CCC(=O)O)C(=O)N[C@@H](CC(C)C)C(=O)O [2-{2-[2-(2-{2-[2-(2-{2-[2-Acetylamino-3-(4-hydroxy-phenyl)-propionylamino]-propionylamino}-acetylamino)-3-hydroxy-butyrylamino]-3-methyl-butyrylamino}-3-methyl-pentanoylamino)-3-carbamoyl-propionylamino]-4-carboxy-butyrylamino}-4-methyl-pentanoicacid]
4,395 µM,CC[C@H](C)[C@H](NC(=O)[C@@H](NC(=O)[C@@H](NC(=O)CNC(=O)[C@H](C)NC(=O)[C@H](Cc1ccc(O)cc1)NC(C)=O)[C@@H](C)O)C(C)C)C(=O)N[C@@H](CO)C(=O)N[C@@H](CC(=O)O)C(=O)N[C@@H](CC(C)C)C(=O)O [2-{2-[2-(2-{2-[2-(2-{2-[2-Acetylamino-3-(4-hydroxy-phenyl)-propionylamino]-propionylamino}-acetylamino)-3-hydroxy-butyrylamino]-3-methyl-butyrylamino}-3-methyl-pentanoylamino)-3-hydroxy-propionylamino]-3-carboxy-propionylamino}-4-methyl-pentanoicacid]
5,> 1000 µM,Ac-YAGTVINCL-OH [2-{2-[2-(2-{2-[2-(2-{2-[2-Acetylamino-3-(4-hydroxy-phenyl)-propionylamino]-propionylamino}-acetylamino)-3-hydroxy-butyrylamino]-3-methyl-butyrylamino}-3-methyl-pentanoylamino)-3-carbamoyl-propionylamino]-3-mercapto-propionylamino}-4-methyl-pentanoic acid]
6,> 1000 µM,Ac-YAGTVINSL-OH [2-{2-[2-(2-{2-[2-(2-{2-[2-Acetylamino-3-(4-hydroxy-phenyl)-propionylamino]-propionylamino}-acetylamino)-3-hydroxy-butyrylamino]-3-methyl-butyrylamino}-3-methyl-pentanoylamino)-3-carbamoyl-propionylamino]-3-hydroxy-propionylamino}-4-methyl-pentanoic acid]
